Source: patent US10179770B2, “Quinolines derivatives as novel anticancer agents” (GENOSCIENCE PHARMA, priority 2013, dated 2019)

Tests used:
TK-10 = test: NCI-60 screen (SRB); assay type: cell-based; conditions: TK-10 (Renal)
How it was run: (§1)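 A 48 h, five-concentration exposure in 5% FBS medium with SRB protein staining. Out-of-range values are reported as greater or less than the tested limits.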

SF-295 = test: NCI-60 screen (SRB); assay type: cell-based; conditions: SF-295 (CNS)
How it was run: as §1

HS 578T = test: NCI-60 screen (SRB); assay type: cell-based; conditions: HS 578T (Breast)
How it was run: as §1

HCT-116 = test: NCI-60 screen (SRB); assay type: cell-based; conditions: HCT-116 (Colon)
How it was run: as §1

Colo205 = test: NCI-60 screen (SRB); assay type: cell-based; conditions: COLO205 (Colon)
How it was run: as §1

[1] = system: ALDH+ cancer stem cells (CSC) in MOLM-14 cell line; test: Aldefluor kit assay, ALDH+ compartment analysis; assay type: cell-based, human; conditions: for Activity against CSCs in Aldefluor™ assay (proportion of CSCs) / Aldefluor™ positive CSCs (% of control): MOLM-14; for Activity against CSCs in Aldefluor™ assay (proportion of CSCs): dose dependent, Cytarabine up to 3-fold its EC50; for Aldefluor positive CSCs (% of control): MOLM-14 cell line, 72 h incubation; for Aldefluor™ positive CSCs (% of control): 72 h
Source text: Analysis of the of aldehyde dehydrogenase (ALDH) compartment and high activity level of aldehyde dehydrogenase activity (ALDH+) was used to detect tumor initiating cells (cancer stem cells, CSC) population. The Aldefluor™ kit assay (StemCell Technologies) allowed to assess the activity of drugs on CSC cells like in aa MOLM-14 acute myeloid leukemia cell line population. The Aldefluor™ kit assay was used according to the procedure described by the manufacturer. Briefly, MOLM-14 cell line was cultured in RPMI-1640 Medium supplemented with 10% v/v Fetal Bovine Serum (FBS), 1% Penicillin-Streptomycin and maintained at 37° C. with 5% CO2. 5·10^5 cells were used in this assay. Each compound was added at different concentrations (see table 13 and 14), and cell cultures were incubated for 72 h. Vehicle (H2O) was used as a control, and all compounds were tested in a constant percentage of vehicle. Cells obtained from cell culture were incubated for 45 minutes at 37° C. with Aldefluor™ buffer assay containing the Bodipy™-aminoacetaldehyde (BAAA), a fluorescent ALDH aldehyde substrate. ALDH converts the fluorescent substrate BAAA to the Bodipy™-aminoacetic acid (BAA) which is retained in the cell. An active efflux inhibitor is present in the Adelfluor™ assay buffer in order to avoid the active efflux from the cell of the substrate product ALDH dependent converted BAA. The fluorescent signal is directly proportional to the ALDH activity in the cells and is measured by flow cytometry. A negative control is used to measure the background fluorescence level. For such purpose, 4-(N,N-diethylamino)-benzaldehyde (DEAB) was used as selective ALDH inhibitor. A viability cell count was performed using LIVE/DEAD® Fixable Far Red Dead Cell Stain Kit (Invitrogen). The experimental data are analyzed using a computer program, Graphpad Prism (GraphPad Software, Inc. La Jolla, Calif.) and EC50 values were determined as the dose of compound required to reduce absorbance values to 50% of the signal obtained for vehicle treated cell cultures.

[2] = Homo sapiens, read-out: LC50 (the source's name)

CC(C)(C)NC1CCN(c2cc(-c3ccc(Cl)cc3)nc3ccccc23)CC1.Cl.Cl [XII-4, 2-(4-chloro-phenyl)-4-(4-N-tert-butylamino-piperidin-1-yl)quinoline dihydrochloride]
Growth percent at 10 μM (TK-10): − (cell growth % > 80) | Growth percent at 10 μM (SF-295): − (cell growth % > 80) | Growth percent at 10 μM (HS 578T): + (cell growth 60 > % < 80) | Growth percent at 10 μM (HCT-116): +++ (cell growth 20 > % < 40) | Growth percent at 10 μM (Colo205): ×××× (cell growth −60 < % > −80)

Cc1ccc(-c2cc(N3CCC(NC(C)(C)C)CC3)c3ccccc3n2)cc1.Cl.Cl [XIII-8, 2-(4-methyl-phenyl)-4-(4-N-tert-butylamino-piperidin-1-yl)quinoline dihydrochloride]
Activity against CSCs in Aldefluor™ assay (proportion of CSCs) [1]: reduced the proportion of CSCs | Aldefluor positive CSCs (% of control) ([1]; 5 μM): 84 % of control | Aldefluor positive CSCs (% of control) ([1]; 10 μM): 83 % of control | Aldefluor positive CSCs (% of control) ([1]; 20 μM): 58 % of control | Aldefluor positive CSCs (% of control) ([1]; 40 μM): 23 % of control

CCN(CC)C1CCN(C(C)c2cc(-c3ccccc3)nc3ccccc23)CC1.Cl.Cl (centres unmarked) [XIX-3, 2-phenyl-4-{1-[4-(N,N-diethylamino)piperidin-1-yl]-eth-1-yl}quinoline dihydrochloride]
Aldefluor™ positive CSCs (% of control) ([1]; 5 μM): 86 % of control | Aldefluor™ positive CSCs (% of control) ([1]; 10 μM): 66 % of control | Aldefluor™ positive CSCs (% of control) ([1]; 20 μM): 42 % of control | Aldefluor™ positive CSCs (% of control) ([1]; 40 μM): 25 % of control | Activity against CSCs in Aldefluor™ assay (proportion of CSCs) [1]: reduced the proportion of CSCs | GI50 (TK-10; Homo sapiens): 13 µM | LC50 (concentration causing 50% net cell kill) (TK-10; Homo sapiens): 26 µM | TGI (TK-10): 26 µM | Growth percent at 10 μM (TK-10): − (cell growth % > 80) | GI50 (SF-295; Homo sapiens): 4 µM | CC50 (SF-295; [2]): 48 µM | TGI (SF-295): 15 µM | Growth percent at 10 μM (SF-295): − (cell growth % > 80) | TGI (HS 578T): 35 µM | Growth percent at 10 μM (HS 578T): + (cell growth 60 > % < 80) | GI50 (HS 578T; Homo sapiens): 11 µM | LC50 (concentration killing 50% of cells) (HS 578T; Homo sapiens): 100 µM | TGI (HCT-116): 19 µM | Growth percent at 10 μM (HCT-116): ++ (cell growth 40 > % < 60) | GI50 (HCT-116; Homo sapiens): 5 µM | CC50 (HCT-116; [2]): 51 µM | TGI (Colo205): 4 µM | Growth percent at 10 μM (Colo205): ××× (cell growth −40 > % < −60) | GI50 (Colo205; Homo sapiens, COLO 205): 2 µM | CC50 (Colo205; Homo sapiens, COLO 205, read-out: LC50 (the source's name)): 7 µM
